Test results published in patent US20230022724A1, “NOVEL IMIDAZOPYRAZINE DERIVATIVES” (Hoffmann-La Roche Inc., priority 2018, published 2023).
Where a name gives a salt, the structure may show the parent alone.

These compounds were tested on Acinetobacter baumannii ATCC17978 (assay: Antimicrobial susceptibility testing: 90% growth inhibitory concentration (IC90) determination). Conditions: 90% growth inhibitory concentration, Acinetobacter baumannii ATCC17978, Iso-Sensitest broth, OD 600 nm over 16 h; read-out: ATCC17978 IC90.
Format: cell-based
Experimental: The in vitro antimicrobial activity of the compounds was determined according to the following procedure:
The assay used a 10-points Iso-Sensitest broth medium to measure quantitatively the in vitro activity of the compounds against Acinetobacter baumannii ATCC17978 and Acinetobacter baumannii ATCC17961.
Stock compounds in DMSO were serially twofold diluted (e.g. range from 50 to 0.097 μM final concentration) in 384 wells microtiter plates and inoculated with 49 μl the bacterial suspension in Iso-Sensitest medium to have a final cell concentration of ˜5×10^(5) CFU/ml in a final volume/well of 50 ul/well. Microtiter plates were incubated at 35±2° C.
Bacterial cell growth was determined with the measurement of optical density at λ=600 nm each 20 minutes over a time course of 16 h. Growth inhibition was calculated during the logarithmic growth of the bacterial cells with determination of the concentration inhibiting 50% (IC50) and 90% (IC90) of the growth.
Table 1 provides the 90% growth inhibitory concentrations (IC90) in micromoles per liter of the compounds of present invention obtained against the strain Acinetobacter baumannii ATCC17978 and Acinetobacter baumannii ATCC17961.

`COc1ccc(-c2cnc3c(Nc4ccc(C(=O)N5CCC(C(=O)N6CCNC(C(=O)O)C6)CC5)c(Cl)c4)nccn23)cc1F` (centres unmarked) [Example 59, 4-[1-[2-chloro-4-[[3-(3-fluoro-4-methoxyphenyl)imidazo[1,2-a]pyrazin-8-yl]amino]benzoyl]piperidine-4-carbonyl]piperazine-2-carboxylic acid] gave an IC90 of 1200 nM.

Same assay, conditions: Acinetobacter baumannii, ATCC17978, 16 h, 90% growth inhibitory concentration, Acinetobacter baumannii ATCC17978, Iso-Sensitest broth, OD 600 nm over 16 h; read-out: ATCC17978 IC90

Point of comparison: `COc1ccc(-c2cnc3c(Nc4ccc(C(=O)N5CCN(CCO)CC5)cc4)nccn23)cc1` [Example 63, [4-(2-hydroxyethyl)piperazin-1-yl]-[4-[[3-(4-methoxyphenyl)imidazo[1,2-a]pyrazin-8-yl]amino]phenyl]methanone], IC90 1100 nM. Against it:
- COc1ccc(-c2cnc3c(Nc4ccc(C(=O)N5CCN(CCN6CCC6)CC5)c(Cl)c4)nccn23)cc1F [Example 57, [4-[2-(azetidin-1-yl)ethyl]piperazin-1-yl]-[2-chloro-4-[[3-(3-fluoro-4-methoxyphenyl)imidazo[1,2-a]pyrazin-8-yl]amino]phenyl]methanone] — 3.3-fold lower, 330 nM
- COc1ccc(-c2cnc3c(Nc4ccc(C(=O)N5CCN(CCNC6CC6)CC5)c(Cl)c4)nccn23)cc1F [Example 58, [2-chloro-4-[[3-(3-fluoro-4-methoxyphenyl)imidazo[1,2-a]pyrazin-8-yl]amino]phenyl]-[4-[2-(cyclopropylamino)ethyl]piperazin-1-yl]methanone] — 3.3-fold lower, 330 nM
- COc1ccc(-c2cnc3c(Nc4ccc(C(=O)N5CCC(C(=O)NCC(O)CN)CC5)c(Cl)c4)nccn23)cc1F (centres unmarked) [Example 60, N-(3-amino-2-hydroxypropyl)-1-[2-chloro-4-[[3-(3-fluoro-4-methoxyphenyl)imidazo[1,2-a]pyrazin-8-yl]amino]benzoyl]piperidine-4-carboxamide;hydrochloride] — 7.9-fold lower, 140 nM
- COc1ccc(-c2cnc3c(Nc4ccc(C(=O)N5CCOCC5)cc4)nccn23)cc1 [Example 61, [4-[[3-(4-methoxyphenyl)imidazo[1,2-a]pyrazin-8-yl]amino]phenyl]-morpholin-4-ylmethanone] — 1.9-fold lower, 580 nM
- COc1ccc(-c2cnc3c(Nc4ccc(C(=O)N5CCC(O)CC5)cc4)nccn23)cc1Cl [Example 62, [4-[[3-(3-chloro-4-methoxyphenyl)imidazo[1,2-a]pyrazin-8-yl]amino]phenyl]-(4-hydroxypiperidin-1-yl)methanone] — within 1.5-fold, 900 nM
- COc1ccc(-c2cnc3c(Nc4ccc(C(=O)N5CCN(C)CC5)cc4)nccn23)cc1 [Example 64, [4-[[3-(4-methoxyphenyl)imidazo[1,2-a]pyrazin-8-yl]amino]phenyl]-(4-methylpiperazin-1-yl)methanone] — within 1.5-fold, 1400 nM
- COc1ccc(-c2cnc3c(Nc4ccc(C(=O)N5CCCCC5)cc4)nccn23)cc1Cl [Example 65, [4-[[3-(3-chloro-4-methoxyphenyl)imidazo[1,2-a]pyrazin-8-yl]amino]phenyl]-piperidin-1-ylmethanone] — within 1.5-fold, 1500 nM
- COc1ccc(-c2cnc3c(Nc4ccc(C(=O)N5CCC(N(C)C)C5)cc4)nccn23)cc1 (centres unmarked) [Example 66, [3-(dimethylamino)pyrrolidin-1-yl]-[4-[[3-(4-methoxyphenyl)imidazo[1,2-a]pyrazin-8-yl]amino]phenyl]methanone] — 5.4-fold higher, 5900 nM
- O=C(c1ccc(Nc2nccn3c(-c4ccc(OC(F)F)cc4)cnc23)cc1Cl)N1CCC(N2CCNCC2)CC1 [Example 67, [2-chloro-4-[[3-[4-(difluoromethoxy)phenyl]imidazo [1,2-a]pyrazin-8-yl]amino]phenyl]-(4-piperazin-1-ylpiperidin-1-yl)methanone;hydrochloride] — 6.5-fold lower, 170 nM
- COc1ccc(-c2cnc3c(Nc4ccc(C(=O)N5CCN(CCN(C)C)CC5)c(Cl)c4)nccn23)c(Cl)c1F [Example 68, [2-chloro-4-[[3-(2-chloro-3-fluoro-4-methoxyphenyl)imidazo[1,2-a]pyrazin-8-yl]amino]phenyl]-[4-[2-(dimethylamino)ethyl]piperazin-1-yl]methanone] — 10-fold lower, 110 nM
- CN(C)CCN1CCN(C(=O)c2ccc(Nc3nccn4c(-c5ccc(OC(F)F)cc5)cnc34)cc2Cl)CC1 [Example 69, [2-chloro-4-[[3-[4-(difluoromethoxy)phenyl]imidazo[1,2-a]pyrazin-8-yl]amino]phenyl]-[4-[2-(dimethylamino)ethyl]piperazin-1-yl]methanone] — 7.9-fold lower, 140 nM
- COc1ccc(-c2cnc3c(Nc4ccc(C(=O)N5CCC(C(=O)N6CCNC(CO)C6)CC5)c(Cl)c4)nccn23)cc1F (centres unmarked) [Example 70, [2-chloro-4-[[3-(3-fluoro-4-methoxyphenyl)imidazo[1,2-a]pyrazin-8-yl]amino]phenyl]-[4-[3-(hydroxymethyl)piperazine-1-carbonyl]piperidin-1-yl]methanone;hydrochloride] — 4.1-fold lower, 270 nM
- COc1ccc(-c2cnc3c(Nc4ccc(C(=O)N5CCN(C6CCNC6)CC5)c(Cl)c4)nccn23)cc1F (centres unmarked) [Example 71, [2-chloro-4-[[3-(3-fluoro-4-methoxyphenyl)imidazo[1,2-a]pyrazin-8-yl]amino]phenyl]-(4-pyrrolidin-3-ylpiperazin-1-yl)methanone;hydrochloride] — 3.9-fold lower, 280 nM
- COc1ccc(-c2cnc3c(Nc4ccc(C(=O)N5CCN(Cc6cnc[nH]6)CC5)c(Cl)c4)nccn23)cc1F [Example 72, [2-chloro-4-[[3-(3-fluoro-4-methoxyphenyl)imidazo[1,2-a]pyrazin-8-yl]amino]phenyl]-[4-(1H-imidazol-5-ylmethyl)piperazin-1-yl]methanone] — 2.2-fold lower, 510 nM
- COc1ccc(-c2cnc3c(Nc4ccc(C(=O)N5CCN(C)CC5)cc4)nccn23)cc1Cl [Example 74, [4-[[3-(3-chloro-4-methoxyphenyl)imidazo[1,2-a]pyrazin-8-yl]amino]phenyl]-(4-methylpiperazin-1-yl)methanone] — 2.5-fold higher, 2700 nM
- C#CCOc1ccc(-c2cnc3c(Nc4ccc(C(=O)N5CCC(CN)CC5)c(Cl)c4)nccn23)c(F)c1F [Example 75, [4-(aminomethyl)piperidin-1-yl]-[2-chloro-4-[[3-(2,3-difluoro-4-prop-2-ynoxyphenyl)imidazo[1,2-a]pyrazin-8-yl]amino]phenyl]methanone] — 13-fold lower, 85 nM
- NCC1CCN(C(=O)c2ccc(Nc3nccn4c(-c5ccc(OCC#CCO)c(F)c5)cnc34)cc2Cl)CC1 [Example 76, [4-(aminomethyl)piperidin-1-yl]-[2-chloro-4-[[3-[3-fluoro-4-(4-hydroxybut-2-ynoxy)phenyl]imidazo[1,2-a]pyrazin-8-yl]amino]phenyl]methanone] — 4.6-fold lower, 240 nM
- CNCC(=O)N1CCN(C(=O)c2ccc(Nc3nccn4c(-c5ccc(OCC#N)c(F)c5F)cnc34)cc2Cl)CC1 [Example 77, 2-[4-[8-[3-chloro-4-[4-[2-(methylamino)acetyl]piperazine-1-carbonyl]anilino]imidazo[1,2-a]pyrazin-3-yl]-2,3-difluorophenoxy]acetonitrile] — 15-fold lower, 73 nM
- CN(C)CCN1CCN(C(=O)c2ccc(Nc3nccn4c(-c5ccc(OCC#N)c(F)c5F)cnc34)cc2Br)CC1 [Example 78, 2-[4-[8-[3-bromo-4-[4-[2-(dimethylamino)ethyl]piperazine-1-carbonyl]anilino]imidazo[1,2-a]pyrazin-3-yl]-2,3-difluorophenoxy]acetonitrile; formic acid] — 3.9-fold lower, 280 nM
- N#CCOc1ccc(-c2cnc3c(Nc4ccc(C(=O)N5CCOCC5)c(Cl)c4)nccn23)c(F)c1F [Example 79, 2-[4-[8-[3-chloro-4-(morpholine-4-carbonyl)anilino]imidazo[1,2-a]pyrazin-3-yl]-2,3-difluorophenoxy]acetonitrile] — 6.9-fold lower, 160 nM
- COc1ccc(-c2cnc3c(Nc4ccc(C(=O)N5CCC(CN)CC5)c(Br)c4)nccn23)cc1F [Example 80, [4-(aminomethyl)piperidin-1-yl]-[2-bromo-4-[[3-(3-fluoro-4-methoxyphenyl)imidazo[1,2-a]pyrazin-8-yl]amino]phenyl]methanone] — 13-fold lower, 87 nM
- COc1ccc(-c2cnc3c(Nc4ccc(C(=O)N5CCN(CCN(C)C)CC5)c(Br)c4)nccn23)cc1F [Example 81, [2-bromo-4-[[3-(3-fluoro-4-methoxyphenyl)imidazo[1,2-a]pyrazin-8-yl]amino]phenyl]-[4-[2-(dimethylamino)ethyl]piperazin-1-yl]methanone;formic acid] — 3.8-fold lower, 290 nM

Same assay, conditions: Acinetobacter baumannii, ATCC17978, 16 h, read-out: ATCC17978 IC90

Point of comparison: `COc1ccc(-c2cnc3c(Nc4ccc(C(=O)N5CCN(C6CNC6)CC5)c(Cl)c4)nccn23)cc1F` [Example 73, [4-(azetidin-3-yl)piperazin-1-yl]-[2-chloro-4-[[3-(3-fluoro-4-methoxyphenyl)imidazo[1,2-a]pyrazin-8-yl]amino]phenyl]methanone; hydrochloride], IC90 530 nM. Against it:
- Cc1cc(Nc2nccn3c(-c4ccc(OC(F)F)cc4)cnc23)ccc1C(=O)N1CCN(C(=O)N2CCN[C@H](C(=O)O)C2)CC1 [Example 82, (2S)-4-[4-[4-[[3-[4-(difluoromethoxy)phenyl]imidazo [1,2-a]pyrazin-8-yl]amino]-2-methylbenzoyl]piperazine-1-carbonyl]piperazine-2-carboxylic acid;hydrochloride] — 1.9-fold higher, 1000 nM
